{"source": "PubChem BioAssay (NCI)", "test_in_all_cases": "NCI-60 cell line screen, 48 h", "key": {"RXF-631 renal": {"tested_on": "RXF-631 renal"}, "DLD-1 colon": {"tested_on": "DLD-1 colon"}, "XF 498 CNS": {"tested_on": "XF 498 CNS"}, "DMS 273 small cell lung": {"tested_on": "DMS 273 small cell lung"}, "SNB-78 CNS": {"tested_on": "SNB-78 CNS"}, "LXFL 529 NSCLC": {"tested_on": "LXFL 529 NSCLC"}, "HOP-18 NSCLC": {"tested_on": "HOP-18 NSCLC"}, "DMS 114 small cell lung": {"tested_on": "DMS 114 small cell lung"}, "M19-MEL melanoma": {"tested_on": "M19-MEL melanoma"}}, "note": "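A five-concentration, 48-hour dose response in 96-well plates underlies each endpoint, interpolated linearly between surrounding concentrations. At the TGI there is no net growth.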", "data": [{"smiles": "NC(=O)N/N=C(/Cc1nc2ccc(C(=O)c3ccccc3)cc2[nH]c1=O)C(=O)Nc1ccc(C(F)(F)F)cc1[N+](=O)[O-]", "values": [{"measurement": "TGI", "setting": "RXF-631 renal", "result": "> 100", "unit": "µM"}, {"measurement": "TGI", "setting": "DLD-1 colon", "result": "> 100", "unit": "µM"}, {"measurement": "TGI", "setting": "XF 498 CNS", "result": "> 100", "unit": "µM"}, {"measurement": "TGI", "setting": "DMS 273 small cell lung", "result": "> 100", "unit": "µM"}, {"measurement": "TGI", "setting": "SNB-78 CNS", "result": "> 100", "unit": "µM"}, {"measurement": "TGI", "setting": "LXFL 529 NSCLC", "result": "> 100", "unit": "µM"}, {"measurement": "TGI", "setting": "HOP-18 NSCLC", "result": "> 100", "unit": "µM"}, {"measurement": "TGI", "setting": "DMS 114 small cell lung", "result": "> 100", "unit": "µM"}, {"measurement": "TGI", "setting": "M19-MEL melanoma", "result": "> 100", "unit": "µM"}]}, {"smiles": "Cc1cc(=O)[nH]c(NNC(C#N)c2c(O)ccc3ccccc23)n1", "note": "(stereo not given)", "values": [{"measurement": "TGI", "setting": "DLD-1 colon", "result": 24.7, "unit": "µM"}, {"measurement": "TGI", "setting": "DMS 273 small cell lung", "result": 18.7, "unit": "µM"}, {"measurement": "TGI", "setting": "SNB-78 CNS", "result": "> 100", "unit": "µM"}, {"measurement": "TGI", "setting": "LXFL 529 NSCLC", "result": 47, "unit": "µM"}, {"measurement": "TGI", "setting": "HOP-18 NSCLC", "result": "> 100", "unit": "µM"}, {"measurement": "TGI", "setting": "DMS 114 small cell lung", "result": 5.81, "unit": "µM"}, {"measurement": "TGI", "setting": "M19-MEL melanoma", "result": 25, "unit": "µM"}]}, {"smiles": "O=S(=O)(c1ccccc1)n1cc(C[P+](c2ccccc2)(c2ccccc2)c2ccccc2)c2ccccc21", "values": [{"measurement": "TGI", "setting": "DLD-1 colon", "result": 11, "unit": "µM"}, {"measurement": "TGI", "setting": "XF 498 CNS", "result": 12.1, "unit": "µM"}, {"measurement": "TGI", "setting": "DMS 273 small cell lung", "result": 10.2, "unit": "µM"}, {"measurement": "TGI", "setting": "SNB-78 CNS", "result": 20.7, "unit": "µM"}, {"measurement": "TGI", "setting": "LXFL 529 NSCLC", "result": 8.26, "unit": "µM"}, {"measurement": "TGI", "setting": "DMS 114 small cell lung", "result": 14.4, "unit": "µM"}, {"measurement": "TGI", "setting": "M19-MEL melanoma", "result": 15.9, "unit": "µM"}]}, {"smiles": "Cc1cnc2c(c1)C(=O)C1=C(OC(C)(C)CC1O)C2=O", "note": "(stereo not given)", "values": [{"measurement": "TGI", "setting": "DLD-1 colon", "result": 33.5, "unit": "µM"}, {"measurement": "TGI", "setting": "XF 498 CNS", "result": 34, "unit": "µM"}, {"measurement": "TGI", "setting": "DMS 273 small cell lung", "result": 25.4, "unit": "µM"}, {"measurement": "TGI", "setting": "LXFL 529 NSCLC", "result": 29.9, "unit": "µM"}, {"measurement": "TGI", "setting": "HOP-18 NSCLC", "result": 29.3, "unit": "µM"}, {"measurement": "TGI", "setting": "DMS 114 small cell lung", "result": 22.4, "unit": "µM"}, {"measurement": "TGI", "setting": "M19-MEL melanoma", "result": 9.86, "unit": "µM"}]}, {"smiles": "C[C@@H]1C2=CC[C@@]3(C)C(CCC3[C@H](C)[C@H]3C[C@@]4(C)O[C@@](c5cccnc5)(O3)OC4(C)C)[C@@H]2C2OC2[C@@]12CCC(=O)O2", "note": "(stereo not given in full)", "values": [{"measurement": "TGI", "setting": "DLD-1 colon", "result": "> 100", "unit": "µM"}, {"measurement": "TGI", "setting": "DMS 273 small cell lung", "result": "> 100", "unit": "µM"}, {"measurement": "TGI", "setting": "SNB-78 CNS", "result": "> 100", "unit": "µM"}, {"measurement": "TGI", "setting": "LXFL 529 NSCLC", "result": "> 100", "unit": "µM"}, {"measurement": "TGI", "setting": "HOP-18 NSCLC", "result": 87.1, "unit": "µM"}, {"measurement": "TGI", "setting": "DMS 114 small cell lung", "result": "> 100", "unit": "µM"}, {"measurement": "TGI", "setting": "M19-MEL melanoma", "result": "> 100", "unit": "µM"}]}, {"smiles": "O=C(Nc1cc(Cl)cc(Cl)c1)/C(Cc1nc2ccccc2[nH]c1=O)=N/NC(=O)c1ccncc1", "values": [{"measurement": "TGI", "setting": "RXF-631 renal", "result": "> 100", "unit": "µM"}, {"measurement": "TGI", "setting": "DLD-1 colon", "result": "> 100", "unit": "µM"}, {"measurement": "TGI", "setting": "SNB-78 CNS", "result": "> 100", "unit": "µM"}, {"measurement": "TGI", "setting": "LXFL 529 NSCLC", "result": "> 100", "unit": "µM"}, {"measurement": "TGI", "setting": "DMS 114 small cell lung", "result": "> 100", "unit": "µM"}, {"measurement": "TGI", "setting": "M19-MEL melanoma", "result": "> 100", "unit": "µM"}]}, {"smiles": "CC(=O)C(CN(C)C)C(c1ccccc1)c1c(O)c2ccccc2oc1=O", "note": "(stereo not given)", "values": [{"measurement": "TGI", "setting": "DLD-1 colon", "result": "> 100", "unit": "µM"}, {"measurement": "TGI", "setting": "XF 498 CNS", "result": "> 100", "unit": "µM"}, {"measurement": "TGI", "setting": "DMS 273 small cell lung", "result": "> 100", "unit": "µM"}, {"measurement": "TGI", "setting": "SNB-78 CNS", "result": "> 100", "unit": "µM"}, {"measurement": "TGI", "setting": "LXFL 529 NSCLC", "result": "> 100", "unit": "µM"}, {"measurement": "TGI", "setting": "HOP-18 NSCLC", "result": "> 100", "unit": "µM"}, {"measurement": "TGI", "setting": "DMS 114 small cell lung", "result": "> 100", "unit": "µM"}, {"measurement": "TGI", "setting": "M19-MEL melanoma", "result": "> 100", "unit": "µM"}]}, {"smiles": "CSc1nc(NC2OC(COC(C)=O)C(OC(C)=O)C(OC(C)=O)C2OC(C)=O)c(-c2csc(N)n2)c(=O)n1C", "note": "(stereo not given)", "values": [{"measurement": "TGI", "setting": "DLD-1 colon", "result": "> 100", "unit": "µM"}, {"measurement": "TGI", "setting": "SNB-78 CNS", "result": 76.8, "unit": "µM"}, {"measurement": "TGI", "setting": "LXFL 529 NSCLC", "result": "> 100", "unit": "µM"}, {"measurement": "TGI", "setting": "HOP-18 NSCLC", "result": "> 100", "unit": "µM"}, {"measurement": "TGI", "setting": "DMS 114 small cell lung", "result": "> 100", "unit": "µM"}, {"measurement": "TGI", "setting": "M19-MEL melanoma", "result": "> 100", "unit": "µM"}]}, {"smiles": "CC1(S)CC2C(CC1Sc1ccccc1)C2(C)C", "note": "(stereo not given)", "values": [{"measurement": "TGI", "setting": "DLD-1 colon", "result": "> 100", "unit": "µM"}, {"measurement": "TGI", "setting": "XF 498 CNS", "result": "> 100", "unit": "µM"}, {"measurement": "TGI", "setting": "DMS 273 small cell lung", "result": "> 100", "unit": "µM"}, {"measurement": "TGI", "setting": "SNB-78 CNS", "result": "> 100", "unit": "µM"}, {"measurement": "TGI", "setting": "LXFL 529 NSCLC", "result": "> 100", "unit": "µM"}, {"measurement": "TGI", "setting": "HOP-18 NSCLC", "result": "> 100", "unit": "µM"}, {"measurement": "TGI", "setting": "DMS 114 small cell lung", "result": "> 100", "unit": "µM"}, {"measurement": "TGI", "setting": "M19-MEL melanoma", "result": "> 100", "unit": "µM"}]}]}
